The subject of one assay is barnyard grass. Kind of assay: Greenhouse test of weed control effect, combined action evaluated by Gowing method. The settings on record: single component. Format: in vivo. The procedure: (§1) Embodiment 1 The synergistic effects of the compound contained with component A and component B is conducted in greenhouse in the present invention, and the component A takes A-3, A-4 and A-5 compounds in the compound table 1 of the general formula I as examples.
(§2) The synergistic effects of the composition on the weeds is defined through greenhouse test.
(§3) A weed culture method is: respectively planting weed seeds of piemarker and barnyard grass quantitatively in a paper cup with a diameter of 7 cm and containing nutrient soil; after planting, covering soil, pressing and watering; and then culturing in a greenhouse. The grass weeds grow to 5-7 leaf stages; the broadleaf weeds grow to 6-8 leaf stages; pre-emergence and post-emergence treatment are conducted with three times repeats. The weeds are placed in the greenhouse after treatment when the leaf without water dried naturally in air, and cultured with normal method. According to the inhibited condition or dying condition of the weeds, after treatment 30 days, visual inspection of the control effect is conducted (see Table 2-Table 7).
(§4) A herbicide formulation preparing method: all test samples are technical dissolved by a mixed solvent of acetone and dimethylformyl (1:2, V/V) firstly; then 1‰ of Tween 80 water is used to prepare mother liquor of a certain concentration; and then processing solutions of different doses are prepared according to test schemes.
(§5) The present invention adopts a Gowing method for evaluating the combined action of the proposed composition.
(§6) X—the weed control effect when the dosage of the component A of the herbicide is P;
(§7) Y—the weed control effect when the dosage of the component B of the herbicide is Q;
(§8) E0—the theoretical control effect when the dosage of the component A of the herbicide is P+the theoretical control effect when the dosage of the component B of the herbicide is Q;
(§9) E—the measured control effect after the component A of the herbicide and the component B of the herbicide are mixed in the above proportion.
(§10) When E−E0>10%, the synergy is achieved; when E−E0<−10%, antagonism is achieved; when the value of E−E0 is between ±10%, the addition effect is achieved.

The next assay concerns piemarker. The description is as above. Format: in vivo. The settings on record: single component. The procedure: as §1, §2, §3, §4, §5, §6, §7, §8, §9, §10
[1] abbreviates: dose 7.5 ga.i./hm^2, visual inspection 30 days after treatment.
Where [2] appears, read: dose 30 ga.i./hm^2, visual inspection 30 days after treatment.
Setting [3] is: dose 120 ga.i./hm^2, visual inspection 30 days after treatment.

“And” between values parts separate entries of the source, which are not always exact repeats. Identical values can stand only once.

Take `c1cc[n+]2c(c1)-c1cccc[n+]1CC2` [Diquat, diquat]: the “Measured Value E (weed control effect)” value in the assay on barnyard grass (setting [1]) is 30% and 20%; in the assay with barnyard grass (setting [2]) it was 50% and 45% and 40%; in the assay with barnyard grass (setting [3]), 65% and 60% and 55%; with piemarker (setting [1]), 20% and 15% and 30%; with piemarker (setting [2]), 50% and 55% and 45%; with piemarker (setting [3]), 60% and 65% and 55%.

The record behind these values is US20220087263A1, “HERBICIDE COMPOSITION AND APPLICATION THEREOF” (SHENYANG SINOCHEM AGROCHEMICALS R&D CO., LTD., priority 2018, published 2022).
